Measurements from patent US20100137398A1, “USE OF HDAC INHIBITORS FOR THE TREATMENT OF GASTROINTESTINAL CANCERS” (NOVARTIS AG, priority 2007, published 2010).

Test system: HCT116 colon cancer cells
Test: HCT116 xenograft model, tumor growth
Assay type: in vivo, Female athymic nude mice
Experimental: Female athymic nude mice were implanted subcutaneously with HCT116 colon cancer cells. […] Mice were treated with LBH589 at 5, 10 or 20 mg/kg intravenously (iv) 5 times a week for 3 weeks or 75 mg/kg of 5-Fluorouracil intravenously once a week for 3 weeks. Animals were calipered weekly. Compound activity was determined as the percent change in tumor volume of treated animals over control animals (% T/C). The percentage of regression was determined as the percent change in the final tumor volume at the end of the study over the starting tumor volume. […] The results are described in FIG. 1.

Cc1[nH]c2ccccc2c1CCNCc1ccc(/C=C/C(=O)NO)cc1 [LBH589, N-hydroxy-3-[4-[[[2-(2-methyl-1H-indol-3-yl)ethyl]-amino]methyl]phenyl]-2E-2-propenamide]
% T/C (percent change in tumor volume of treated over control animals) (5 mg/kg intravenously 5 times a week for 3 weeks): 17%
% T/C (percent change in tumor volume of treated over control animals) (10 mg/kg intravenously 5 times a week for 3 weeks): 6%
tumor regression (percent change in final tumor volume over starting tumor volume) (20 mg/kg intravenously 5 times a week for 3 weeks): 8%
